Assay results taken from patent US9958433B2, “Method and system for in vitro developmental toxicity testing” (Agency for Science, Technology and Research, priority 2012, dated 2018).
Where two headings read alike, the source gives them in different places.

Experiments:
[1] = system: micropatterned hESC colonies; test: Micropatterned hESC mesoendoderm pattern disruption (Brachyury immunofluorescence, Asymmetrical Ratio); settings: for Asymmetrical Ratio decrease relative to untreated control: 3 days of differentiation, control ratio 3; for Asymmetrical Ratio after treatment (average intensity ratio of ring area to off-ring area): human, 3 days
Description: In order to generate gradients of mechanical stress, circle or square shapes of Matrigel matrix with two different sizes (785000 μm2 or 196250 μm2) were designed using AutoCAD software. Then polydimethylsiloxane (PDMS) stencils were fabricated by using a laser-cutter (Universal Laser System) to cut the designated shape patterns on a 127 μm thick PDMS sheet (Specialty Silicone Products Inc.) and then bonding it to a laser-cut, 2 mm thick PDMS gasket. For cell patterning, the PDMS stencil was first sealed into a 60 mm petri dish by adding 200 μl 70% ethanol and dried in the tissue culture hood, then Matrigel™ (BD Biosciences) matrix was coated by at least hour incubation with the Matrigel™ solution (FIG. 1). Thereafter cells were seeded at a density of 4 million cells/ml. After 1 hour incubation for cell attachment, the stencil and excess unattached cells were removed. The surface was then passivated with 0.5% pluronic acid for 10 mins before 3-time washing. The acquired patterned hESC were incubated overnight in mTesR1 maintenance medium (StemCell Technologies) for stabilization and the mesoendoderm induction was started the next day.
The differentiation of patterned hESC colonies were induced by mesoendoderm induction medium, which comprises of 100 ng/ml Activin, 25 ng/ml BMP4 and 10 ng/ml FGF2 in basal serum-free APEL™ medium (STEMdiff™, StemCell Technologies). For developmental toxicity testing, the patterned hESC colonies were cultured in mesoendoderm induction medium together with the test chemical. The induction lasted 3 days and the medium is half changed daily with/without the test chemical.
Samples were fixed on Day 3 of differentiation. Immunofluorescence staining was done to check the expression distribution of early mesoendodermal marker Brachyury. Image acquisition was done under 10× objective using Olympus fluorescence microscope and Asymmetrical Ratio was calculated using MATLAB programming (FIG. 5). Results
Three known teratogens (0.1 mM Valproic acid (VPA), 0.05 ug/ml 5-Fluorouracil (5-FU), and 0.8 mM Thalidomide) were tested using this model. Mesoendoderm induction medium together with the drug was added into our model and incubated for 3 days before the samples were fixed for immunofluorescence staining of Brachyury. Half of the medium was changed daily with the drug. An untreated control which was only cultured in mesoendoderm induction medium without any drug was also done. […] In order to measure the disruption, we used Asymmetrical Ratio as a parameter to evaluate the asymmetrical patterns with or without drug treatment, which indicate the average intensity ratio of “ring” area to “off-ring” area (FIG. 5).

μP-hESC colony = test: Live imaging / kymograph of collective cell migration in μP-hESC colony under drug treatment; assay type: cell-based, human
Description: Spatially localized differentiated cells (at edge of stem cell colony) underwent coordinated cell movement to form a 3D-like structural motif as observed by live imaging (FIG. 8D). The trajectory of the coordinated cell movement can be seen from a space-time plot (kymograph) of the differentiating stem cells (FIG. 8E).

μP-hESC colonies = test: PCA of morphological features of mesoendoderm motif in μP-hESC colonies (dose-dependent developmental toxicity)
Protocol: Alterations to the different morphological features of the mesoendoderm structural motif were quantitatively measured by image processing at different concentrations of drugs. These morphological features at different drug concentrations were analyzed with principal component analysis (PCA). A data point represents each morphological feature; the data point color represents the drug concentration used in the treatment. […] Data Collection Process: 1. Treat our μP-hESC colonies with 3 different concentrations of each drug and fix the samples on day 3 together with the untreated normal control samples. Acquire T immunofluorescence images of samples under Olympus fluorescence microscope. 2. Process all the T fluorescence images using Matlab to extract all the relevant morphological features of the samples representing the spatial distribution of the mesoendoderm motif (T^+ positive region in the images).

[2] = system: adult human dermal fibroblasts (aHDFs); test: Cytotoxicity test (MTS) on adult fibroblasts; settings: at the drug's effective concentration (EC)
hESC cell line H9 [3] = test: Cytotoxicity test (MTS) on hESC; settings: at the drug's effective concentration (EC)
human = settings: cited from earlier work
hESC cell line H9 [4] = system: hESC cell line H9
[5] = system: adult human dermal fibroblasts (aHDFs)

Row | SMILES | Toxicity to aHDFs [2] | Toxicity to H9 cells (hESC cell line H9 [3]) | Drug classification by developmental toxicity effect (μP-hESC colonies) | Concentrations at which spatial distribution of mesoendoderm motif was significantly disrupted (PCA) (μP-hESC colonies; human, 3 days) | Effective concentration (lowest concentration which significantly disrupted spatial localization of mesoendoderm motif) (μP-hESC colonies; human, 3 days) | Localization of the mesoendoderm motif (T+ region) [1] | Trajectories of collective cell migration (kymograph) (μP-hESC colony) | other results
1 | O=c1[nH]cc(F)c(=O)[nH]1 [5-FU, 5-Fluorouracil] | – | – | – | – | – | – | – | Asymmetrical Ratio decrease relative to untreated control ([1]; 0.05 μg/ml 5-FU): 46.7%; Asymmetrical Ratio after treatment (average intensity ratio of ring area to off-ring area) ([1]; 0.05 μg/ml): 1.6
2 | CC1(C)S[C@@H]2[C@H](NC(=O)Cc3ccccc3)C(=O)N2[C@H]1C(=O)O [Penicillin G] | – | – | – | – | – | – | – | Localization of the mesoendoderm motif (T+ region) ([1]; day3, FIG. 9B): remained unchanged; Trajectories of collective cell migration (kymograph) (μP-hESC colony; day2-3 of differentiation): unaffected; PCA clustering of morphological features by drug concentration (μP-hESC colonies; 3 concentrations of each drug, day 3): cannot be segregated; Drug classification by developmental toxicity effect (μP-hESC colonies; based on PCA and cytotoxicity test (MTS) results): non-developmental toxic; Concentrations at which spatial distribution of mesoendoderm motif was significantly disrupted (PCA) (μP-hESC colonies; day 3, μP-hESC colonies): > 1000 µg/mL; Effective concentration (lowest concentration which significantly disrupted spatial localization of mesoendoderm motif) (μP-hESC colonies; μP-hESC models): above 1000 μg/ml
3 | CC1=C(/C=C/C(C)=C/C=C/C(C)=C/C(=O)O)C(C)(C)CCC1 [RA, retinoic acid] | not toxic | not toxic | teratogenic | >= 0.0036 μg/ml | ~0.0036 µg/mL | – | – | –
4 | O=C1CCC(N2C(=O)c3ccccc3C2=O)C(=O)N1 (stereo not shown) [Thalidomide] | not toxic | toxic | both teratogenic and embryotoxic | >= 300 μM | ~300 µM | misplaced | disrupted | Asymmetrical Ratio decrease relative to untreated control ([1]; 0.8 mM Thalidomide): ~70%; Asymmetrical Ratio after treatment (average intensity ratio of ring area to off-ring area) ([1]; 0.8 mM): ~0.9; H9 cell survival (hESC cell line H9 [3]): > 50%; Developmental deformation (human): causes developmental deformation in human
5 | CCCC(CCC)C(=O)O [VPA, Valproic acid] | – | – | very embryotoxic | >= 0.8 mM | ~800 µM | misplaced | disrupted | Toxicity to H9 cells (hESC cell line H9 [4]): very toxic; H9 cell survival (hESC cell line H9 [4]; human): ~20%; Toxicity to aHDFs [5]: a little toxic; Asymmetrical Ratio decrease relative to untreated control ([1]; 0.1 mM VPA): ~70%; Asymmetrical Ratio after treatment (average intensity ratio of ring area to off-ring area) ([1]; 0.1 mM): ~0.9
